Legend:
[1] = test system: patients with psychogenic impotence; details: patients on liquid sublingual apomorphine 10 mg and 20 mg
[2] = test system: patients with psychogenic impotence; details: nicotine e.g. by smoking

SMILES | counteraction of apomorphine adverse effects (nausea, vomiting, diaphoresis, etc.) [1] | counteraction of adverse effects of the 5 mg apomorphine dose (nausea, diaphoresis, etc.) [2]
O=c1[nH]c2ccccc2n1CCCN1CCC(n2c(=O)[nH]c3cc(Cl)ccc32)CC1 [Domperidone] | can be counteracted | can be counteracted
CN1CCCC1c1cccnc1 (stereo not drawn) [nicotine] | – | can be counteracted

— US6566368B2, “Apomorphine-containing dosage form for ameliorating male erectile dysfunction” (Pentech Pharmaceuticals, Inc., priority 1994, dated 2003)
